Measurements from patent US20250188061A1, “NOVEL DEUTERATED PYRIMIDIN-2-YL SULFONAMIDE DERIVATIVES” (Hoffmann-La Roche Inc., priority 2022, published 2025).

What follows are compounds tested against human GPR17 short isoform (Homo sapiens, UniProt Q13304) (assay: GPR17 cAMP assay (hGPR17 cAMP, antagonist mode)). Settings: CHO-K1 cells stably expressing human GPR17 short isoform; EC80 of agonist MDL29,951; forskolin 15 μM; TR-FRET cAMP.
Assay type: cell-based
Source text: Changes in intracellular cyclic adenosine monophosphate (cAMP) levels were quantified using the Nano-TRF Detection Assay kit (Roche Diagnostics, Cat. No. 05214386001). This assay allows for direct cAMP quantification in a homogeneous solution. cAMP is detected based on time-resolved fluorescence energy transfer (TR-FRET) and competitive binding of ruthenylated cAMP and endogenous cAMP to an anti-cAMP monoclonal antibody labeled with AlexaFluor-700. The Ruthenium complex serves as the FRET donor and transfers energy to AlexaFluor-700. The FRET signal is inversely proportional to the cAMP concentration.
CHO-GPR17S cells were detached with Accutase and resuspended in assay buffer consisting of Hank's Balanced Salt Solution (HBSS), 10 mM HEPES (4-(2-hydroxyethyl) piperazine-1-ethanesulfonic acid solution) and 0.1% bovine serum albumin (pH 7.4). The cells were seeded in black 384-well plates (Corning) at a density of 10,000 cells/20 μl assay buffer until the addition of compounds.
Test antagonist compounds were serially diluted in dimethyl sulfoxide (DMSO) and spotted in 384-well plates. The compounds were then diluted in HBSS buffer supplemented with an EC80 concentration of MDL29,951 (3-(2-Carboxy-4,6-dichloroindol-3-yl) propionic acid) (GPR17 agonist) plus 3-Isobutyl-1-methylxanthine (IBMX) (0.5 mM final concentration) and added to the cells at room temperature. Forskolin (15 μM final concentration) was added 5 minutes after the test compounds and the cells were incubated at room temperature for 30 minutes. The assay was stopped by adding cAMP detection mix (containing detergents for cell lysis) for 90 minutes at room temperature.
Cellular cAMP was measured using a Paradigm reader (Molecular Devices). The raw data was used to calculate the FRET signal based on the assay's P-factor as per cAMP kit instructions. The data was normalized to the maximal activity of a reference antagonist and dose response curves were fitted to the percent activity of the test compounds using a sigmoidal dose response model (Genedata Screener).

Chain of human GPR17 short isoform (Q13304 29-367): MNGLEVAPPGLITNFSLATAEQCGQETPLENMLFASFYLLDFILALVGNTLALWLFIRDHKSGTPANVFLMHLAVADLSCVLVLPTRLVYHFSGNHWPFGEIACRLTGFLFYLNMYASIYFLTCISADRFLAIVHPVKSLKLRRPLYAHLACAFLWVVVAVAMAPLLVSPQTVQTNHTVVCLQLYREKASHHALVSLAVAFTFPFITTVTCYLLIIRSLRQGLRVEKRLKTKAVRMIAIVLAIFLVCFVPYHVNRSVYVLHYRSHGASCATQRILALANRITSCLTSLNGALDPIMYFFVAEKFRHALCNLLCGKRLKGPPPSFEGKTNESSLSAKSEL

IC50 [nM] | SMILES
94 | [2H]C([2H])(c1cnc(NS(=O)(=O)c2c[nH]c3cc(F)ccc23)nc1OC)C(F)F [Example 4, N-[5-(1,1-dideuterio-2,2-difluoro-ethyl)-4-methoxy-pyrimidin-2-yl]-6-fluoro-1H-indole-3-sulfonamide]
42 | [2H]C([2H])(F)C([2H])([2H])Oc1c(OC)nc(NS(=O)(=O)c2c[nH]c3nc(Br)ccc23)nc1OC [Example 2, 6-bromo-N-[4,6-dimethoxy-5-(1,1,2,2-tetradeuterio-2-fluoro-ethoxy)pyrimidin-2-yl]-1H-pyrrolo [2,3-b]pyridine-3-sulfonamide]
23 | [2H]C([2H])(c1c(OC)nc(NS(=O)(=O)c2c[nH]c3nc(Br)ccc23)nc1OC)C(F)F [Example 9, 6-bromo-N-[5-(1,1-dideuterio-2,2-difluoro-ethyl)-4,6-dimethoxy-pyrimidin-2-yl]-1H-pyrrolo[2,3-b]pyridine-3-sulfonamide]
63 | [2H]C([2H])(F)C([2H])([2H])Oc1c(OC)nc(NS(=O)(=O)c2c[nH]c3nc(Cl)ccc23)nc1OC [Example 3, 6-chloro-N-[4,6-dimethoxy-5-(1,1,2,2-tetradeuterio-2-fluoro-ethoxy)pyrimidin-2-yl]-1H-pyrrolo[2,3-b]pyridine-3-sulfonamide]
85 | [2H]C([2H])(F)C([2H])([2H])Oc1cnc(NS(=O)(=O)c2c[nH]c3c(F)c(Cl)ccc23)nc1OC [Example 1, 6-chloro-7-fluoro-N-[4-methoxy-5-(1,1,2,2-tetradeuterio-2-fluoro-ethoxy)pyrimidin-2-yl]-1H-indole-3-sulfonamide]
57 | [2H]C([2H])(c1c(OC)nc(NS(=O)(=O)c2c[nH]c3nc(C)ccc23)nc1OC)C(F)F [Example 12, N-[5-(1,1-dideuterio-2,2-difluoro-ethyl)-4,6-dimethoxy-pyrimidin-2-yl]-6-methyl-1H-pyrrolo [2,3-b]pyridine-3-sulfonamide]
105 | [2H]C([2H])(CF)Oc1cnc(NS(=O)(=O)c2c[nH]c3c(F)c(Cl)ccc23)nc1OC [Example 6, 6-chloro-N-[5-(1,1-dideuterio-2-fluoro-ethoxy)-4-methoxy-pyrimidin-2-yl]-7-fluoro-1H-indole-3-sulfonamide]
107 | [2H]C([2H])(c1cnc(NS(=O)(=O)c2c[nH]c3c(F)c(Cl)ccc23)nc1OC)C(F)F [Example 5, 6-chloro-N-[5-(1,1-dideuterio-2,2-difluoro-ethyl)-4-methoxy-pyrimidin-2-yl]-7-fluoro-1H-indole-3-sulfonamide]
55 | [2H]C([2H])(c1cnc(NS(=O)(=O)c2c[nH]c3cc(Cl)ccc23)nc1OC)C(F)F [Example 7, 6-chloro-N-[5-(1,1-dideuterio-2,2-difluoro-ethyl)-4-methoxy-pyrimidin-2-yl]-1H-indole-sulfonamide]
81 | [2H]C([2H])(Oc1c(OC)nc(NS(=O)(=O)c2c[nH]c3nc(Br)ccc23)nc1OC)C(F)F [Example 10, 6-bromo-N-[5-(1,1-dideuterio-2,2-difluoro-ethoxy)-4,6-dimethoxy-pyrimidin-2-yl]-1H-pyrrolo[2,3-b]pyridine-3-sulfonamide]
137 | [2H]C([2H])(c1cnc(NS(=O)(=O)c2c[nH]c3c(F)c(Br)ccc23)nc1OC)C(F)F [Example 8, 6-bromo-N-[5-(1,1-dideuterio-2,2-difluoro-ethyl)-4-methoxy-pyrimidin-2-yl]-7-fluoro-1H-indole-3-sulfonamide]
37 | [2H]C([2H])(c1c(OC)nc(NS(=O)(=O)c2c[nH]c3nc(Cl)ccc23)nc1OC)C(F)F [Example 11, 6-chloro-N-[5-(1,1-dideuterio-2,2-difluoro-ethyl)-4,6-dimethoxy-pyrimidin-2-yl]-1H-pyrrolo[2,3-b]pyridine-3-sulfanomide]
